Assay results taken from patent US20020035260A1, “4-aza-steroids” (Novopharm Limited, priority 1997, published 2002).
Where “and” joins values, the source holds several entries; their conditions need not be identical. Identical values can stand only once. Like-named read-outs stand apart in the source and are kept apart here.

Assays:
Type in all cases: biochemical
[1] = biological target: T1, 5-α-reductase II enzyme (Homo sapiens, UniProt P31213); experiment: Human 5-α-reductase II enzyme assay (human prostate); conditions: Tris-citrate pH 5.0
T1 construct: Specimens of human prostates were quickly frozen in dry ice after collection and kept at −70° C. before isolation of the enzyme; from tissue; host or cells: human prostate specimens, particulate fraction
T1 sequence (P31213 1-254): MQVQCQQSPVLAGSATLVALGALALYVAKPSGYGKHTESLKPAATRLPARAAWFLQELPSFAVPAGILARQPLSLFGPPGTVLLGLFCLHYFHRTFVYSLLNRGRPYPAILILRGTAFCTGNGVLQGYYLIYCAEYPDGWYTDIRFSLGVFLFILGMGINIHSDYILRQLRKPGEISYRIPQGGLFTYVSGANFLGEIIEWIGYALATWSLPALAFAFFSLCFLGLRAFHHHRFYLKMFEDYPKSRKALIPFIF
Protocol: (§1) Biochemical Assays were carried out to determine the inhibitory activities of various compounds of the previous examples on 5-α-reductase I enzyme isolated from male rate prostate and 5-α-reductase II enzyme isolated from rat epididymus and human prostate. These procedures were carried out following published literature procedures (H. Takami et al., J. Med. Chem., 39, pp 5047-5052; Tehming Liang, Margaret A. Cascieri et al., Endocrinology, 117, pp 571-579). Brief descriptions are as follows:
(§2) Rat 5-α-reductase II enzyme assay: Epididymus, taken out during the isolation of the rat prostates during rat enzyme I assay, was stored at −70° C. Isolation of the enzyme and the assay were carried out following the procedure described above, except the reaction buffer used was 40 mM Tris-citrate, pH 4.5. The range of IC50 values for different test compounds obtained from different experiments is shown in Table 1 under the column, Rat Epididymus Enzyme II IC50.
(§3) Human 5-α-reductase II enzyme assay: Specimens of human prostates were quickly frozen in dry ice after collection and kept at −70° C. before isolation of the enzyme. Isolation of the enzyme and the assay were carried out following a similar procedure as for the isolation of rat 5-α-reductase II enzyme with some modifications. During the isolation of the enzyme, 50 μM NADPH was added to the homogenizing buffer as a stabilizer. The enzyme was stored in the homogenizing buffer containing 20% glycerol. The enzyme reaction buffer used as 40 mM Tris-citrate buffer, pH 5.0. The range of IC50 values for different test compounds obtained from different experiments is shown in Table 1 under the column, Human Prostate Enzyme II IC50.

[2] = biological target: T2, 5-α-reductase I enzyme (Rattus norvegicus, UniProt P24008); experiment: Rat 5-α-reductase I enzyme assay (rat prostate); conditions: range of IC50 values from different experiments; pH 6.5, 2 μM 14C testosterone
T2 construct: Prostates, removed from 16 young male Sprague dawley rats (each weighing about 300-400 g), were minced and homogenized; from tissue; host or cells: rat prostate (Sprague Dawley), 140,000 g pellet
T2 sequence (P24008 1-259): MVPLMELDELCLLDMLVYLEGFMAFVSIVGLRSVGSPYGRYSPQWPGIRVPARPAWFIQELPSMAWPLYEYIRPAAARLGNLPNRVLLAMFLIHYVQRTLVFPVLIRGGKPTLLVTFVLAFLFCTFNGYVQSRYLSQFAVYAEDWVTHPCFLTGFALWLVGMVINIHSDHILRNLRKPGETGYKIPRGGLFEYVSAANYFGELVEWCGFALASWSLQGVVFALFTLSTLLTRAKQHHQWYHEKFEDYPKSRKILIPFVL
Protocol: as §1
(§4) Rat 5-α-reductase I enzyme assay. Prostates, removed from 16 young male Sprague dawley rats (each weighing about 300-400 g), were minced and homogenized at 0-4° C. in 3 tissue volumes of buffer (0.32 M sucrose, 1 mM dithiothreitol, and 20 mM phosphate buffer, pH 6.5) using a polytron homogenizer. The homogenate was centrifuged at 4° C. at 140,000 g for 1 hour. The resultant pellet, after washing with the homogenizing buffer was suspended in the same buffer and stored at −70° C. The assay was carried out in a final volume of 0.5 ml containing 20 mM phosphate buffer (pH 6.5), 1 mM dithiothreitol, 150 μM NADPH, 2 μM ^14C testosterone and the enzyme concentration (500 μg-1 mg) For conducting the inhibitory studies on a 5-α-reductase I, finasteride and other test compounds were added in 10 μl of ethanol to a concentration 10^−9 to 10^−5 with five to six points including control using duplicate for each point to the above reaction mixture. The incubations were done for 20 minutes at 37° C. The reactions were stopped by adding 2.0 ml of ethyl acetate containing testosterone, 5-α-dihydrotestosterone, and androstenedione (10 μg each). After centrifugation at 1000 g for 5 minutes, the upper ethyl acetate extract was transferred to a tube and then evaporated under nitrogen to dryness. The compounds were taken up in 50 μl of ethyl acetate and chromatographed on Whatman LK5DF silica GF TLC plates using ethyl acetate-cyclohexane (1:1). The respective TLC spots corresponding to testosterone and dihydrotestosterone (Rf value same as that of androstenedione) were scraped from the plate and taken in respective scintillation vials. They were counted in the Beckman scintillation counter model No. LS 6500 with counting efficiency of 95% for ^14C carbon. Finasteride was used as a known standard during all screening. The range of IC50 values for different test compounds obtained from different experiments is shown in Table 1 under the column, Rat Prostate Enzyme I IC50.

[3] = biological target: T3, 5-α-reductase II enzyme (Rattus norvegicus, UniProt P31214); experiment: Rat 5-α-reductase II enzyme assay (rat epididymus); conditions: range of IC50 values from different experiments; Tris-citrate pH 4.5
T3 construct: from tissue; host or cells: rat epididymis (Sprague Dawley), particulate fraction
T3 sequence (P31214 1-254): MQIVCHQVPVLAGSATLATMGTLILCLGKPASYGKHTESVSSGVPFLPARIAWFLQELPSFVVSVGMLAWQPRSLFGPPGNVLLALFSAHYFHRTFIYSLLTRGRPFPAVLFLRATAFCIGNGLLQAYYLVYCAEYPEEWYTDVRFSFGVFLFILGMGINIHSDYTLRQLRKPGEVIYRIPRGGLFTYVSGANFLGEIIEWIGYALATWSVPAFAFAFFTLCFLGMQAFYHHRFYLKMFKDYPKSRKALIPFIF
Protocol: as §1, §4, §2

[4] = biological target: T4, 5-α-reductase type II (Homo sapiens, UniProt P31213); experiment: Activity against 5-α-reductase type II; conditions: statement in words, compared with finasteride
T4 sequence (P31213 1-254): T1 sequence (P31213 1-254)
Protocol: as §2, §3

[5] = range of IC50 values from different experiments, read-out: Human Prostate Enzyme II IC50

IC50 [1, 5]	IC50 [2]	IC50 [3]	Structure (SMILES)	activity against 5-α-reductase type II [4]	IC50 ([1]; read-out: Human Prostate Enzyme II IC50)	IC50 ([1]; Human Prostate Enzyme II IC50, range of IC50 values from different experiments)
11.5 to 44 nM	53 to 99 nM	2.9 to 8.6 nM	CC(C)(C)NC(=O)[C@H]1CC[C@H]2[C@@H]3[C@H](Cl)C[C@H]4NC(=O)CC[C@]4(C)[C@H]3CC[C@]12C [1,2-Dihydro-7-α-chloro-finasteride, 1,2-dihydro-7-α-chloro-finasteride]			
536 to 755 nM	453 to 492 nM	567 to 891 nM	CC(C)(C)NC(=O)[C@H]1CC[C@H]2[C@@H]3[C@@H](O)C[C@H]4NC(=O)CC[C@]4(C)[C@H]3CC[C@]12C [1,2-Dihydro-7-β-hydroxy-finasteride, 1,2-dihydro-7-β-hydroxy-finasteride]			
	351 to 468 nM		CC(C)(C)NC(=O)[C@H]1C[C@@H](O)[C@H]2[C@@H]3CC[C@H]4NC(=O)CC[C@]4(C)[C@H]3CC[C@@]21C [1,2-Dihydro-15-β-hydroxy-finasteride, 1,2-dihydro-15β-hydroxy-finasteride]			
19 to 32 nM			CC(C)(C)NC(=O)[C@H]1CC[C@H]2[C@@H]3[C@H](N=[N+]=[N-])C[C@H]4NC(=O)C=C[C@]4(C)[C@H]3CC[C@]12C [7-α-Azido-finasteride, 7-α-azido-finasteride]	very high specific inhibitory activity		
0.9 to 3.6 nM	306 to 350 nM	1.92 to 3.1 nM	CC(C)(C)NC(=O)[C@H]1CC[C@H]2[C@@H]3[C@H](Cl)C[C@H]4NC(=O)C=C[C@]4(C)[C@H]3CC[C@]12C [7-α-Chloro-finasteride, 7-α-chloro-finasteride]	considerably higher than that of finasteride itself		
213 to 570 nM	1500 to 4300 nM		Cc1ccc(S(=O)(=O)O[C@H]2C[C@H]3NC(=O)C=C[C@]3(C)[C@H]3CC[C@]4(C)[C@@H](C(=O)NC(C)(C)C)CC[C@H]4[C@H]23)cc1 [7-β-Tosyloxy-finasteride, 7-β-tosyloxy-finasteride]			
62 to 64 nM	811 to 1800 nM	106 nM	CC(C)(C)NC(=O)C1CCC2C3C(CCC12C)C1(C)C=CC(=O)NC1C[C@@H]3O (stereo partly drawn) [7-β-hydroxy-finasteride]			
39 to 49.6 nM	50 to 67 nM	45 nM	CC(C)(C)NC(=O)[C@H]1CC=C2[C@@H]3CC[C@H]4NC(=O)C=C[C@]4(C)[C@H]3CC[C@@]21C [14,15-Dehydro-finasteride, 14,15-dehydro-finasteride]			
50 to 59 nM	805 to 853 nM	640 nM	CC(C)(C)NC(=O)C1CC(O)C2C3CCC4NC(=O)C=CC4(C)C3CCC12C (stereo not drawn) [15-β-hydroxy-finasteride]			

Structure (SMILES)	IC50 [1, 5]	IC50 [2]	IC50 [3]	activity against 5-α-reductase type II [4]	IC50 ([1]; read-out: Human Prostate Enzyme II IC50)	IC50 ([1]; Human Prostate Enzyme II IC50, range of IC50 values from different experiments)
CC(=O)O[C@H]1C[C@H]2NC(=O)C=C[C@]2(C)[C@H]2CC[C@]3(C)[C@@H](C(=O)NC(C)(C)C)CC[C@H]3[C@H]12 [7-β-Acetoxy-finasteride, 7-β-acetoxy-finasteride]	175 to 362 nM	385 to 697 nM	135 to 357 nM			
CC(=O)O[C@@H]1C[C@H](C(=O)NC(C)(C)C)[C@@]2(C)CC[C@H]3[C@@H](CC[C@H]4NC(=O)C=C[C@@]43C)[C@H]12 [15-β-Acetoxy-finasteride, 15-β-acetoxy-finasteride]		4200 to 5700 nM	1600 to 2700 nM		2010 nM	
CC(C)(C)NC(=O)C1CCC2C3CCC4NC(=O)C=CC4(C)C3CCC12C (stereo not drawn) [Finasteride, (5α, 17β)-(1,1-dimethyl-ethyl)-3-oxo-4-aza-androst-1-ene-17-carboxamide, reference compound]		11 to 38 nM and 13 to 30 nM	5.1 to 14.8 nM and 2.9 to 11.8 nM			2.7 to 10.6 nM and 3.3 to 7 nM
